Results published in patent publication US20190307843A1, “SINGLE DOSE METHODS FOR PREVENTING AND TREATING FUNGAL INFECTIONS” (Cidara Therapeutics, Inc., priority 2016, published 2019).
≈ marks a conversion by molar mass, not a printed value. Where “and” joins values, the source holds several entries; their conditions need not be identical. Equal entries are not always repeated. Starred links: 1 amine or outer side, 2 acyl side, 3 side chain; linkers in the order of their positions; H or OH if unused. Positions of bridges follow the written chain, without caps; N, C: chain ends. Non-standard residues stand in square brackets, D forms with d. Residues, ends and D or L forms follow the SMILES beside them. *: point of attachment. pTerphenylCO(4''-OnC5H11) = CCCCCOc1ccc(-c2ccc(-c3ccc(C(=O)*)cc3)cc2)cc1; Orn(4R-OH,5R-OH) = O=C([C@H](C[C@@H](O)[C@@H](O)N[*:3])N[*:1])[*:2]; hTyr(3S-OH,4S-OH) = N[C@H](C(=O)O)[C@H](O)[C@@H](O)c1ccc(O)cc1; Pro(3S-OH,4S-Me) = C[C@H]1CN[C@H](C(=O)O)[C@H]1O; Hyp = O=C(O)[C@@H]1C[C@@H](O)CN1

Tests used:
[1] = tested on: Aspergillus fumigatus (ATCC 13073); test: Neutropenic mouse aspergillosis model, survival; format: in vivo; details: AmB 2 mg/kg IP one dose; 10 days
C. auris = test: Murine model of disseminated candidiasis, C. auris infection, kidney CFU and survival; format: in vivo, Candida auris; details: amphotericin B 0.3 mg/kg IP, 2 doses; Day 14
[2] = tested on: Aspergillus fumigatus (ATCC 13073); test: Prophylaxis, neutropenic ICR mouse disseminated aspergillosis model, survival; details: amphotericin B at 3 mg/kg IP administered one hour after infection
C. albicans = test: In vitro susceptibility testing (CLSI M27-A3), C. albicans; format: cell-based; details: Candida albicans, 24 h
Procedure: (§1) Ten clinical Candida strains were used for the in vivo treatment studies, including four C. albicans, three C. glabrata, and three C. parapsilosis strains (Table 15). This group was selected to encompass phenotypic variability in susceptibility to triazoles and echinocandins and based on similar fitness in the animal model as defined by the amount of growth in control animals over 24 h. The organisms were maintained, grown, and quantified on Sabouraud's dextrose agar (SDA) plates.
(§2) In vitro susceptibility testing. All isolates were tested in accordance with the standards in CLSI document M27-A3. The MICs were determined visually after 24 h of incubation as the lowest concentration of drug that causes a significant diminution (50%) of growth compared to controls. MICs were determined on three separate occasions in duplicate.

C. glabrata = test: In vitro susceptibility testing (CLSI M27-A3), C. glabrata; format: cell-based, Candida glabrata; details: Nakaseomyces glabratus, 24 h
Procedure: as §1, §2

C. parapsilosis = test: In vitro susceptibility testing (CLSI M27-A3), C. parapsilosis; format: cell-based, Candida parapsilosis; details: Lodderomyces parapsilosis, 24 h
Procedure: as §1, §2

A. fumigatus AF293 [3] = test: Pulmonary aspergillosis, prophylaxis, neutropenic ICR mice (Examples 17, 18), survival; format: in vivo, Aspergillus fumigatus
Procedure: Intranasal infection with A. fumigatus AF293 (10^5 CFU/mouse) on Day 0. Prophylaxis CD101 as a single dose (IP; 5, 10, 20 mg/kg) or posaconazole (PO; 2 and 10 mg/kg) 1 day prior to infection. Survival monitored for 10 days.
Intranasal challenge with A. fumigatus AF293 (10^5 CFU/mouse) was initiated on Day 0 and prophylaxis with CD101 as a single dose (IP; 5, 10, 20 mg/kg) or posaconazole (PO; 2 and 10 mg/kg) was started 1 day prior to infection. Survival was monitored for 10 days.

A. fumigatus AF293 [4] = test: Murine model of pulmonary aspergillosis (Example 19), terminal lung burden; format: in vivo, Aspergillus fumigatus
Procedure: A secondary endpoint for the study was terminal lung tissue burden. Immediately following confirmation of death, carcasses were frozen at −20° C. prior to tissue dissection and processing. The frozen carcasses were thawed at room temperature, the lungs removed and placed into pre-weighed bead-beating tubes containing 2 mL of PBS and subjected to mechanical disruption. Organ homogenates were diluted further in PBS and quantitatively cultured for A. fumigatus onto SABC and incubated at 30° C. for 24-48 hours.
2. Lung tissue burden data were analysed using the non-parametric Kruskal-Wallis test and if this was statistically significant all pairwise comparisons were analyzed (Conover-Inman).

A. fumigatus AF293 [5] = test: Murine model of pulmonary aspergillosis (Example 19), survival; details: for Mean Survival / Median Survival: Day 1 pre-infection
[6] = Posaconazole 10 mg/kg PO Day −1
[7] = Vehicle vs. Posaconazole 10 mg/kg

C[C@@H]1[C@H](O)[C@@H](C)/C=C/C=C/C=C/C=C/C=C/C=C/C=C/[C@H](O[C@@H]2O[C@H](C)[C@@H](O)[C@H](N)[C@@H]2O)C[C@@H]2O[C@](O)(C[C@@H](O)C[C@@H](O)[C@H](O)CC[C@@H](O)C[C@@H](O)CC(=O)O[C@H]1C)C[C@H](O)[C@H]2C(=O)O [AmB, amphotericin B, reference compound]
survival vs vehicle [1]: significantly longer survival than vehicle
percent survival at the end of the study (C. auris): 30%
14-day survival [2]: significant increase in the 14-day survival

CCCCCOc1ccc(-c2ccc(-c3ccc(C(=O)N[C@H]4C[C@@H](O)[C@@H](O)NC(=O)[C@@H]5[C@@H](O)[C@@H](C)CN5C(=O)[C@H]([C@@H](C)O)NC(=O)[C@H]([C@H](O)[C@@H](O)c5ccc(O)cc5)NC(=O)[C@@H]5C[C@@H](O)CN5C(=O)[C@H]([C@@H](C)O)NC4=O)cc3)cc2)cc1 [Anidulafungin, anidulafungin, reference compound] ({pTerphenylCO(4''-OnC5H11)}-[Orn(4R-OH,5R-OH)]T[Hyp][hTyr(3S-OH,4S-OH)]T[Pro(3S-OH,4S-Me)]; lactam 1-C)
MIC (C. albicans; C. albicans 98-17): 0.03 µg/mL (≈ 0.0263 µM)
MIC (C. albicans; C. albicans 98-210): 0.015 µg/mL (≈ 0.0132 µM)
MIC (C. albicans; C. albicans 580): 0.015 µg/mL (≈ 0.0132 µM)
MIC (C. albicans; C. albicans K-1, 50% growth diminution): 0.015 µg/mL (≈ 0.0132 µM)
MIC (C. glabrata; C. glabrata 5592): 0.06 µg/mL (≈ 0.0526 µM)
MIC (C. glabrata; C. glabrata 10956): 1 µg/mL (≈ 0.877 µM)
MIC (C. glabrata; C. glabrata 35315): 0.25 µg/mL (≈ 0.219 µM)
MIC (C. parapsilosis; C. parapsilosis 20423.072): 1 µg/mL (≈ 0.877 µM)
MIC (C. parapsilosis; C. parapsilosis 20477.048): 2 µg/mL (≈ 1.75 µM)
MIC (C. parapsilosis; C. parapsilosis 20519.069): 4 µg/mL (≈ 3.51 µM)

CC[C@@H]([C@H](C)O)n1ncn(-c2ccc(N3CCN(c4ccc(OC[C@@H]5CO[C@@](Cn6cncn6)(c6ccc(F)cc6F)C5)cc4)CC3)cc2)c1=O [Posaconazole, posaconazole]
survival (A. fumigatus AF293 [3]; posaconazole 2 mg/kg PO 1 day prior to infection): no survivors
survival rate relative to control (A. fumigatus AF293 [3]; posaconazole 10 mg/kg PO 1 day prior to infection): statistically-significant increase in survival rate relative to control
Group Geometric mean (lung burden) (A. fumigatus AF293 [4]; Posaconazole 2 mg/kg PO Day −1): 1.14 × 10^4 CFU/g
Log10 Group Geometric mean (lung burden) (A. fumigatus AF293 [4]; Posaconazole 2 mg/kg PO Day −1): 4.06 CFU/g
Log10 reduction from vehicle control (A. fumigatus AF293 [4]; Posaconazole 2 mg/kg PO Day −1): 0.11 CFU/g
Group Geometric mean (lung burden) (A. fumigatus AF293 [4]; [6]): 2.75 × 10^3 CFU/g
Log10 Group Geometric mean (lung burden) (A. fumigatus AF293 [4]; [6]): 3.44 CFU/g
Log10 reduction from vehicle control (A. fumigatus AF293 [4]; [6]): 0.73 CFU/g
survival time post infection, range (A. fumigatus AF293 [5]; Posaconazole 2 mg/kg PO once): 69 to 114 h
Mean Survival (A. fumigatus AF293 [5]; Posaconazole 2 mg/kg PO once): 77.5 h
Median Survival (A. fumigatus AF293 [5]; Posaconazole 2 mg/kg PO once): 69.0 h
survival time post infection, range (A. fumigatus AF293 [5]; Posaconazole 10 mg/kg PO once): 69 to 240 h
Mean Survival (A. fumigatus AF293 [5]; Posaconazole 10 mg/kg PO once): 212 h and 211.5 h
Median Survival (A. fumigatus AF293 [5]; Posaconazole 10 mg/kg PO once): cannot estimate
mice surviving to the end of the study (A. fumigatus AF293 [5]; Posaconazole 10 mg/kg PO, 6/treatment group, 10 days): 5
Wilcoxon (Peto-Prentice) test, survival (A. fumigatus AF293 [5]; Vehicle vs. Posaconazole 2 mg/kg): P = 0.0391
Log-Rank test, survival (A. fumigatus AF293 [5]; [7]): P = 0.0182
Wilcoxon (Peto-Prentice) test, survival (A. fumigatus AF293 [5]; [7]): P = 0.0441
survival compared to the vehicle mice (A. fumigatus AF293 [5]; posaconazole 2 mg/kg once one day pre-infection): did not show any improvement in survival
mice surviving to the end of the study (A. fumigatus AF293 [5]; posaconazole 10 mg/kg once 1 day pre-infection): > 80%
